The source of these data is patent publication US7445897B2, “Sequence variants of multi-drug resistance genes, MDR1 and MRP1, and methods for assessment of drug penetration and disposition” (University of Washington, priority 2004, dated 2008).

For data set [1], the system named is Pgp (MDR1 and 1199 variants) in recombinant HEK cells. In words: Doxorubicin intracellular accumulation in recombinant HEK cells. The class given is cell-based, human. The note with it: recombinant HEK cells expressing MDR1, any variant.
Experimental: Cells were washed with ice-cold PBS, trypsinized, and lysed in 0.5% deoxycholic acid. To precipitate the proteins tricholoracetic acid was added to 5% and the cell lysates were incubated for 30 min at 4° C. and centrifuged at 20,000 g.
The target in data set [2] is P-gp (MDR11199, G1199A) in recombinant LLC-PK1 cells (Homo sapiens, UniProt P08183, S400N).
For data set [3] the following is noted: healthy human subjects; Greiner et al. 1999; cited from earlier work.
Data set [4] has as its system LLC-PK1 control cells. In words: Intracellular uptake of HIV protease inhibitors. Type of data set: in vitro ADME, porcine.
Data set [5] has as its system P-gp (MDR11199, G1199A) in recombinant LLC-PK1 cells. The note with it: human, LLC-PK1.
The target of data set [6] is MDR1-wt in recombinant LLC-PK1 cells (Homo sapiens, UniProt P08183, G185V/S893A).
The target in data set [7] is MDR1-1199A in recombinant LLC-PK1 cells (Homo sapiens, UniProt P08183, G185V/S400N/S893A).
The target in the next data set is MDR1 (wild type) (Homo sapiens, UniProt P08183, G185V/S893A). In words: in vitro.
In another data set the target is MDR1 (1199A variant) (Homo sapiens, UniProt P08183, G185V/S400N/S893A). In words: Intracellular uptake of HIV protease inhibitors. The note with it: recombinant LLC-PK1 cells expressing MDR1-1199A.
In data set [8] the test system is LLC-PK1 control cells.
For another data set, the system named is HEK - MDR1 G1199T cells. In words: Cytotoxic drug sensitivity assay (MTS). The class given is cell-based, human. The note with it: HEK MDR1 G1199T; 72hours, MTS; read-out: EC50 (Mean ± S.D.).
Data set [9] has as its system HEK negative control cells. In words: Cytotoxic drug sensitivity assay (MTS). Type of data set: cell-based, human. The note with it: HEK Control; 72hours, MTS; read-out: EC50 (Mean ± S.D.).
The subject of a further data set is HEK - MDR1 WT cells. In words: Cytotoxic drug sensitivity assay (MTS). The class given is cell-based, human. The note with it: HEK MDR1 WT; 72hours, MTS; read-out: EC50 (Mean ± S.D.).
[10] abbreviates: protease inhibitor + GF120918 (1 μM).

Like-named read-outs stand apart in the source and are kept apart here.

What is called Km is the substrate concentration at which the rate is half of its maximum. The EC50 is the concentration at which the effect is half-maximal.

P-gp (MDR11199, G1199A) in recombinant LLC-PK1 cells (Homo sapiens, UniProt P08183, S400N), sequence (P08183 whole entry S400N): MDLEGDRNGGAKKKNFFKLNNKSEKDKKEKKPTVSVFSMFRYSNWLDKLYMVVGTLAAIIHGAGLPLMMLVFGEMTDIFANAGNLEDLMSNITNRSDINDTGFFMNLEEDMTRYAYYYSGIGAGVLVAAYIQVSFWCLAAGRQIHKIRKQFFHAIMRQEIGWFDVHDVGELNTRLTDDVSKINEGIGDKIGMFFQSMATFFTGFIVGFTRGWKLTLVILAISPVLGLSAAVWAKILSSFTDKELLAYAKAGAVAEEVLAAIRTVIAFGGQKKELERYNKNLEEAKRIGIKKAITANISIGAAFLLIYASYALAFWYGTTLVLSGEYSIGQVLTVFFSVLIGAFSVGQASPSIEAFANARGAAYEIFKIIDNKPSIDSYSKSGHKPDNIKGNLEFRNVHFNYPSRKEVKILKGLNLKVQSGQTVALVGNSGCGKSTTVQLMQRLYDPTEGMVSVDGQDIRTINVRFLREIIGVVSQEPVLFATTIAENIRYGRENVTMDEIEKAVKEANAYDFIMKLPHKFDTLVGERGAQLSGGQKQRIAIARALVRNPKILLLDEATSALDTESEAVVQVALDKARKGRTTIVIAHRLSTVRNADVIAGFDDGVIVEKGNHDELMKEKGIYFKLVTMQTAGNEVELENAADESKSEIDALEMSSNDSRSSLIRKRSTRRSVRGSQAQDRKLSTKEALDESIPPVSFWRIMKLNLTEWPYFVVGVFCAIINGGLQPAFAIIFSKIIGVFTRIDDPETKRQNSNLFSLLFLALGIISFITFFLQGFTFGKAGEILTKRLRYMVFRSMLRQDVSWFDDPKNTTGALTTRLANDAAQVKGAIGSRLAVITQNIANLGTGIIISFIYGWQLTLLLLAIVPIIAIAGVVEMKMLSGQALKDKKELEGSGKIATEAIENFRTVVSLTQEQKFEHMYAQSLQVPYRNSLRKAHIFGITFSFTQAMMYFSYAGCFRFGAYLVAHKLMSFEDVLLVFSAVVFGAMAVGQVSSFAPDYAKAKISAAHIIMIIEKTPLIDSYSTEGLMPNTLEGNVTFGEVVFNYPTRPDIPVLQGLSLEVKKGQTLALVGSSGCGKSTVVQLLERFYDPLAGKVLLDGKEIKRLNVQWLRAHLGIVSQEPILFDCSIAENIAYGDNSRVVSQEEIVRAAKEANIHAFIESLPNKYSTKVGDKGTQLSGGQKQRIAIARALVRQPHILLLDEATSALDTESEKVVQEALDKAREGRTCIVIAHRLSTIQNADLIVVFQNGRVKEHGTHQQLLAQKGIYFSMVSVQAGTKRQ
MDR1-1199A in recombinant LLC-PK1 cells, sequence (P08183 whole entry G185V/S400N/S893A): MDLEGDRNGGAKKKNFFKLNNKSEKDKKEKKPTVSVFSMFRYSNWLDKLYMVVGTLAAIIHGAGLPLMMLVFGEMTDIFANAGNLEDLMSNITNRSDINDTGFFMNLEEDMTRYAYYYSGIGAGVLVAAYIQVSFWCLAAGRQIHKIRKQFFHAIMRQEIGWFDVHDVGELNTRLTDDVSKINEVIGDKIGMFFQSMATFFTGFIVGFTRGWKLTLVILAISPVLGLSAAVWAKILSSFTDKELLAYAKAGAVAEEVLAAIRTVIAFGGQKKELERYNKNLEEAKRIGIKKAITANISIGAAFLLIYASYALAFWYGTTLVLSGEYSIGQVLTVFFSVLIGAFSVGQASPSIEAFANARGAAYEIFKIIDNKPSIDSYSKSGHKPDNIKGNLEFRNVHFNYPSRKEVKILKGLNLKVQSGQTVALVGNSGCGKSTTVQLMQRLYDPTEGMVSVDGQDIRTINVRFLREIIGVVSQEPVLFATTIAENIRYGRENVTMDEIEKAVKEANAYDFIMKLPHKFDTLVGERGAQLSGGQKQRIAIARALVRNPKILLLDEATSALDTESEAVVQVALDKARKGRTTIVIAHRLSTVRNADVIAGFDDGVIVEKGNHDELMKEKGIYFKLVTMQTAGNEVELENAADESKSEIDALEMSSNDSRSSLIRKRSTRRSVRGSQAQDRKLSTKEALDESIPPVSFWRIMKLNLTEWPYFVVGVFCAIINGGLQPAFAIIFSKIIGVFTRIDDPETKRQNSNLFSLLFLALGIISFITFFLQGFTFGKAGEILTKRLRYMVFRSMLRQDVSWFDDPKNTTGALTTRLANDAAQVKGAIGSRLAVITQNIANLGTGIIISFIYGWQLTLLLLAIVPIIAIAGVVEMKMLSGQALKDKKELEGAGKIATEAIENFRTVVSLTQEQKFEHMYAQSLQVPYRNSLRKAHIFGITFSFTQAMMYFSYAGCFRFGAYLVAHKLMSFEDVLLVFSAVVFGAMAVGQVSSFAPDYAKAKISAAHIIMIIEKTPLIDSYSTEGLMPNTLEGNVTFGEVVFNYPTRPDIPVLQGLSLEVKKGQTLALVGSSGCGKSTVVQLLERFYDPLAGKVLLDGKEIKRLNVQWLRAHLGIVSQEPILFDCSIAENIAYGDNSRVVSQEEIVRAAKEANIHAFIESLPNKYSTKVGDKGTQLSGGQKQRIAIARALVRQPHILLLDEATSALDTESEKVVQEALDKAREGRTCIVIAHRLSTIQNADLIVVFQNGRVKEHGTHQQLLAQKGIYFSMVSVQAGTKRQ
MDR1 (1199A variant), sequence (P08183 whole entry G185V/S400N/S893A): as above
MDR1-wt in recombinant LLC-PK1 cells, sequence (P08183 whole entry G185V/S893A): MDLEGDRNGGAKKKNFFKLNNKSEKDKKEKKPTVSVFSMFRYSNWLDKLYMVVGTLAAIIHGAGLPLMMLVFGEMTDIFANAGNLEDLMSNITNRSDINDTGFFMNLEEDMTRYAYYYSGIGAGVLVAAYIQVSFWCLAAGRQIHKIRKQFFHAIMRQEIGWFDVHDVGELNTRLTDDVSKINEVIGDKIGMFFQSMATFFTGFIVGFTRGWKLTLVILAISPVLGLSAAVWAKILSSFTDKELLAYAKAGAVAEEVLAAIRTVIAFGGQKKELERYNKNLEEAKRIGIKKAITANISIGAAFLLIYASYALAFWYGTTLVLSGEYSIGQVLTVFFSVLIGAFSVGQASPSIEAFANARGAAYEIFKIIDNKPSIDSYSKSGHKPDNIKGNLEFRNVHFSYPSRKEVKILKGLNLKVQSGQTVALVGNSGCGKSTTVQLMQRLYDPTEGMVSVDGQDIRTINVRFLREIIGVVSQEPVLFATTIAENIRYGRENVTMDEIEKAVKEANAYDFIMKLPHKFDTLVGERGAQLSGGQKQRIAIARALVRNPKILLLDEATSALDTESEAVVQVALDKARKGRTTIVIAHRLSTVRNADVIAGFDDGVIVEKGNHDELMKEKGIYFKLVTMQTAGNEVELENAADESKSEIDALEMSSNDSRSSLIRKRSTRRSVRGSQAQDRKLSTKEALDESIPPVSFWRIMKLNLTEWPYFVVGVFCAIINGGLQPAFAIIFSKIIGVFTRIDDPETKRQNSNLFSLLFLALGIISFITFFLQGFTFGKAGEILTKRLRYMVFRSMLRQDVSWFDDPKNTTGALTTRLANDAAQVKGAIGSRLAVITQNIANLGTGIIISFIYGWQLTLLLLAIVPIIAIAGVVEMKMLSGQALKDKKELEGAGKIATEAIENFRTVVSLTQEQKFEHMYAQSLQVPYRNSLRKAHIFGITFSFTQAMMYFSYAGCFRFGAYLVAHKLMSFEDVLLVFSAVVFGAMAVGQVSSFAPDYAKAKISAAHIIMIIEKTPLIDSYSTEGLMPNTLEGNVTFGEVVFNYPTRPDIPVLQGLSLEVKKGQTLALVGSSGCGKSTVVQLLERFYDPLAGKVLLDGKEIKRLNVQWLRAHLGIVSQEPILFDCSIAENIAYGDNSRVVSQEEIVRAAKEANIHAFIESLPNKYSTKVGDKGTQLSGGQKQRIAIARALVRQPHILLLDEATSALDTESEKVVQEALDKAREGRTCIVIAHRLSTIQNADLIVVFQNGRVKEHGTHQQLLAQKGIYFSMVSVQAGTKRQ

For `COc1cc2c(cc1OC)CN(CCc1ccc(NC(=O)c3cccc4c(=O)c5cccc(OC)c5[nH]c34)cc1)CC2` [GF120918, N-(4-[2-(1,2,3,4-tetrahydro-6,7-dimethoxy-2-isoquinolinyl)ethyl]-phenyl)-9,10-dihydro-5-methoxy-9-oxo-4-acridine carboxamide], the “effect of inhibitor on reduction in intracellular doxorubicin concentration” value in [1] was “can be reversed”. Also, in data set [2], the “effect of inhibitor on P-gp efflux of protease inhibitors” value was “effectively blocked P-gp activity”.
As for `C[C@H]1O[C@@H](O[C@H]2[C@@H](O)C[C@H](O[C@H]3[C@@H](O)C[C@H](O[C@H]4CC[C@@]5(C)[C@H](CC[C@@H]6[C@@H]5C[C@@H](O)[C@]5(C)[C@@H](C7=CC(=O)OC7)CC[C@]65O)C4)O[C@@H]3C)O[C@@H]2C)C[C@H](O)[C@@H]1O` [digoxin], the “range in the oral bioavailability from inter-individual variation in intestinal MDR1 expression” value in data set [3] is reported as 7 fold.
As for `CC(C)(C)NC(=O)[C@@H]1C[C@@H]2CCCC[C@@H]2CN1C[C@@H](O)[C@H](Cc1ccccc1)NC(=O)[C@H](CC(N)=O)NC(=O)c1ccc2ccccc2n1` [saquinavir], the figures for the Km in the data set with LLC-PK1 control cells [4], on MDR1 (wild type) and at MDR1 (1199A variant) were 2 µM, 18 µM and 14.5 µM, respectively. Besides, the Vmax with LLC-PK1 control cells [4] came to 1.47 pmole/min*10^6 cells; in data set [6], 1.13 pmole/min*10^6 cells; in data set [7], 1.00 pmole/min*10^6 cells. Also, in data set [5], the “decrease in apical-to-basolateral flux in MDR11199 cells compared to MDR1wt cells” value was 2.3 fold. Also, the “Rate of transfer dQ/dt ± s.d., A → B” value in the data set on LLC-PK1 control cells [8] (setting [10]) came to 3.48 ± 0.57; in the data set on LLC-PK1 control cells [8] (protease inhibitor alone, 5 μM), 3.02 ± 0.35. The “Rate of transfer dQ/dt ± s.d., B → A” value with LLC-PK1 control cells [8] (setting [10]) is recorded as 7.36 ± 0.60; with LLC-PK1 control cells [8] (protease inhibitor alone, 5 μM), 8.03 ± 0.51.
For the compound ivermectin, the EC50 worked out at 3.84 ± 0.307 µM in the data set with HEK - MDR1 G1199T cells, 4.1 ± 0.21 µM in data set [9], 3.809 ± 0.0273 µM with HEK - MDR1 WT cells and 4.04 ± 0.0776 µM with HEK - MDR1 G1199A cells.
